Data reported in the CheMixHub viscosity set.

Assay: xn = mol fraction of the nth substance listed
Settings: 101 kPa

COC(C)=O + CN1CCCC1=O
viscosity [mPa·s]
Settings | x2 = 0.0845 | x2 = 0.172 | x2 = 0.2626 | x2 = 0.3565 | x2 = 0.4539 | x2 = 0.5549 | x2 = 0.6598 | x2 = 0.7688 | x2 = 0.8821
303.15 K | 0.52 | 0.671 | 0.818 | 0.958 | 1.096 | 1.22 | 1.326 | 1.424 | 1.502
308.15 K | 0.488 | 0.619 | 0.749 | 0.873 | 0.991 | 1.102 | 1.195 | 1.284 | 1.358
313.15 K | 0.445 | 0.571 | 0.693 | 0.811 | 0.923 | 1.028 | 1.118 | 1.202 | 1.271
318.15 K | 0.412 | 0.526 | 0.638 | 0.743 | 0.846 | 0.939 | 1.022 | 1.098 | 1.163

OCCNCCO + CN1CCCC1=O
viscosity [mPa·s]
Settings | 293.15 K | 303.15 K | 313.15 K | 323.15 K
x2 = 0.1012 | 457.2 | 211.6 | 100.2 | 38.39
x2 = 0.1941 | – | 103.8 | 43.29 | 27
x2 = 0.2002 | 222.2 | 106.2 | 60.47 | 24.87
x2 = 0.3004 | 85.35 | 47.36 | 28.26 | 17.59
x2 = 0.4003 | 53.69 | 31.19 | 19.32 | 12.45
x2 = 0.4024 | – | 31.82 | 15.04 | 10.25
x2 = 0.4998 | 27.76 | 16.74 | 10.6 | 7.513
x2 = 0.5851 | – | 16.32 | 7.42 | 6.32
x2 = 0.6003 | 16.21 | 9.543 | 5.75 | 3.961
x2 = 0.7 | 7.618 | 5.537 | 4.107 | 3.18
x2 = 0.7962 | – | 8.38 | 4.04 | 3.22
x2 = 0.7997 | 4.326 | 3.448 | 2.746 | 2.257
x2 = 0.8994 | 2.841 | 2.318 | 1.927 | 1.63

CCC(C)=O + CN(C)C=O
298.15 K
Settings | viscosity [mPa·s]
x2 = 0.0395 | 0.387
x2 = 0.0843 | 0.403
x2 = 0.1186 | 0.414
x2 = 0.1681 | 0.43
x2 = 0.2276 | 0.451
x2 = 0.2773 | 0.471
x2 = 0.3768 | 0.499
x2 = 0.5116 | 0.547
x2 = 0.6168 | 0.581
x2 = 0.7438 | 0.662
x2 = 0.8079 | 0.698

OCCNCCO + CN(C)C=O
viscosity [mPa·s]
Settings | 298.15 K | 303.15 K | 308.15 K | 313.15 K | 318.15 K | 323.15 K
x2 = 0.7704 | 2.703 | 2.509 | 2.34 | 2.172 | 2.034 | 1.879
x2 = 0.8119 | 2.172 | 2.009 | 1.842 | 1.682 | 1.542 | 1.427
x2 = 0.8519 | 1.853 | 1.686 | 1.559 | 1.429 | 1.295 | 1.204
x2 = 0.8907 | 1.53 | 1.423 | 1.321 | 1.206 | 1.115 | 1.03
x2 = 0.9283 | 1.357 | 1.238 | 1.14 | 1.043 | 0.9653 | 0.8984
x2 = 0.9647 | 1.169 | 1.097 | 1.02 | 0.9487 | 0.8828 | 0.8316
